Measurements reported in the supplement of paper PMC4862054.

Columns and labels:
HDQ-P1 [1] = experiment: normalised viability (% of control), CellTiter-Blue; higher = more viable cells (about 100 = DMSO control); conditions: incubation time: 72 h
Description: (§1)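 DSRT, CellTiter-Blue viability, 72 h incubation. Signal is normalised to DMSO and benzethonium chloride controls. Value is the normalised response at dose 9.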

CAL-51 = experiment: as above; conditions: incubation time: 72 h
Description: as §1

CAL-148 = experiment: as above; conditions: incubation time: 72 h
Description: as §1

DU-4475 = experiment: as above; conditions: incubation time: 72 h
Description: as §1

CAL-85-1 [2] = experiment: as above; conditions: incubation time: 72 h
Description: as §1

MDA-MB-453 = experiment: as above; conditions: incubation time: 72 h
Description: as §1

HDQ-P1 [3] = experiment: normalised response (% of control), CellTiter-Glo; higher = more viable cells (100 = DMSO, 0 = benzethonium chloride kill control); conditions: incubation time: 72 h
Description: (§2)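 DSRT, 72 h incubation, CellTox Green / CellTiter-Glo readout. Signal is normalised to DMSO and benzethonium chloride controls. Value is the normalised response at the highest dose.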

BT-549 = experiment: as above; conditions: incubation time: 72 h
Description: as §2

BT-474 = experiment: as above; conditions: incubation time: 72 h
Description: as §2

MFM-223 = experiment: as above; conditions: incubation time: 72 h
Description: as §2

CAL-120 = experiment: as above; conditions: incubation time: 72 h
Description: as §2

CAL-85-1 [4] = experiment: as above; conditions: incubation time: 72 h
Description: as §2

MDA-MB-468 = experiment: as above; conditions: incubation time: 72 h
Description: as §2

SK-BR-3 = experiment: as above; conditions: incubation time: 72 h
Description: as §2

MDA-MB-436 = experiment: as above; conditions: incubation time: 72 h
Description: as §2

MDA-MB-231 = experiment: drug sensitivity score (DSS), CellTox Green (DSS (AUC-based score)); higher = stronger drug effect (viability inhibition or cytotoxicity); extreme values may be limits of the assay; conditions: incubation time: 72 h
In short: (§3)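 The drug sensitivity score reflects the area under a fitted dose-response curve. To obtain it, breast cancer cells in 20 µl suspension were seeded into 384-well plates containing compound at 5 concentrations, 10-fold apart over a compound-specific 10,000-fold range, and incubated 72 h. CellTox Green fluorescence (485/520 nm) was read first and CellTiter-Glo luminescence second, after 10 min at room temperature. Each plate was normalised to 0.1 % DMSO and a positive kill control.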

Hs578T = experiment: as above; conditions: incubation time: 72 h
In short: as §3

HCC1937 = conditions: 72 h
In short: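 Breast cancer cell lines in 20 µl suspension were seeded onto 384-well plates pre-loaded with compound dissolved in 5 µl medium, then incubated 72 h. For viability, 2.5 µl CellTiter-Blue was added for 2 h at 37 °C and fluorescence read at 560/590 nm. Each plate was normalised to vehicle and a positive kill control and checked by Z'-factor. EC50 comes from the fitted percent-inhibition dose-response curve, censored at the highest concentration; rows with zero drug sensitivity score were dropped.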

EC50, CellTiter-Blue viability (HCC1937) [µM] | Compound | normalised viability (HDQ-P1 [1]) [%] | normalised viability (CAL-51) [%] | normalised viability (CAL-148) [%] | normalised viability (DU-4475) [%] | normalised viability (CAL-85-1 [2]) [%] | normalised viability (MDA-MB-453) [%] | normalised response (HDQ-P1 [3]) [%] | normalised response (BT-549) [%] | normalised response (BT-474) [%] | normalised response (MFM-223) [%] | normalised response (CAL-120) [%] | normalised response (CAL-85-1 [4]) [%] | normalised response (MDA-MB-468) [%] | normalised response (SK-BR-3) [%] | normalised response (MDA-MB-436) [%] | drug sensitivity score (MDA-MB-231) | drug sensitivity score (Hs578T)
 | COc1cccc2cc(-c3nc([C@H]4CC[C@H](C(=O)O)CC4)n4ncnc(N)c34)[nH]c12 [OSI-027] (10000 nM) | 20.2 | 14.5 | 10.6 | 30.1 | 25.2 | 12.5 | 37.5 | 24.8 | 51.8 | 28.5 | 30.1 | 30.1 | 33.4 | 22.9 | 45.6 |  | 
 | OC[C@H]1O[C@@H](n2cnc3c2N=CNC[C@H]3O)C[C@@H]1O [Pentostatin] (10000 nM) | 99.7 | 88.3 | 124 | 103 | 108 | 106 | 98.1 | 92.5 | 88.9 | 99.3 | 101 | 99.2 | 103 | 104 | 96.8 |  | 
1.65 | N#CC[C@H](C1CCCC1)n1cc(-c2ncnc3[nH]ccc23)cn1 [Ruxolitinib] |  |  |  |  |  |  |  |  |  |  |  |  |  |  |  | 0 | 0
 | N#CC[C@H](C1CCCC1)n1cc(-c2ncnc3[nH]ccc23)cn1 [Ruxolitinib] (10000 nM) | 107 | 87.3 | 106 | 113 | 115 | 66.1 | 86.3 | 101 | 81.8 | 73.2 | 77.7 | 98.5 | 88.7 | 91.5 | 88.4 |  | 
 | C=CC[C@@H]1/C=C(\C)C[C@H](C)C[C@H](OC)[C@H]2O[C@@](O)(C(=O)C(=O)N3CCCC[C@H]3C(=O)O[C@H](/C(C)=C/[C@@H]3CC[C@@H](O)[C@H](OC)C3)[C@H](C)[C@@H](O)CC1=O)[C@H](C)C[C@@H]2OC [Tacrolimus] (10000 nM) | 136 | 95 | 115 | 107 | 100 | 98.6 | 103 | 90.8 | 88.5 | 81.2 | 105 | 99.6 | 85.4 | 89.3 | 98 |  | 
